Laboratory results reported in ChEMBL document CHEMBL3885861, “Open TG-GATES”.

Species: Rattus norvegicus
Test: Open TG-GATES - Regimen: Daily Repeat
Assay type: toxicity, organism-based, Sprague-Dawley
Design: regimen Daily Repeat, gender Male, age 6 weeks
Conditions: in vivo, po, 30 mg/kg, […], route gavage, dose level Low; for KIDNEY_L / KIDNEY_R / KIDNEY_TOTAL: tissue Kidney; for LIVER: tissue Liver; for A/G / ALP / ALT / AST / BUN / CRE / Ca / Cl / DBIL / GLC / IP / K / LDH / Na / PL / RALB / TBIL / TC / TG / TP / gamma-GTP: tissue Plasma

`Clc1c(Cl)c(Cl)c(Cl)c(Cl)c1Cl` [PERCHLOROBENZENE] gave a Lym (tissue Blood, time 28 day) of 69.8%, an MCH (tissue Blood, time 28 day) of 20.4 pg and an MCHC (tissue Blood, time 28 day) of 33.4%. It also gave an MCV (tissue Blood, time 28 day) of 61 fL, a Mono (tissue Blood, time 28 day) of 12% and a Neu (tissue Blood, time 28 day) of 16.2%. It also gave a PT (tissue Blood, time 28 day) of 13.2 s, a Plat (tissue Blood, time 28 day) of 102.4 x10_4/uL and an RBC (tissue Blood, time 28 day) of 735 x10_4/ul. The Ret (tissue Blood, time 28 day) was 3%, the WBC (tissue Blood, time 28 day) was 113.2 x10_2/uL and the KIDNEY_L (time 7 day) was 1.2 g. It also gave a KIDNEY_R (time 7 day) of 1.2 g, a KIDNEY_TOTAL (time 7 day) of 2.4 g and a KIDNEY_L (time 14 day) of 1.3 g. It also gave a KIDNEY_R (time 14 day) of 1.4 g, a KIDNEY_TOTAL (time 14 day) of 2.7 g and a KIDNEY_L (time 28 day) of 1.7 g. For the same compound, the KIDNEY_R (time 28 day) was 1.7 g, the KIDNEY_TOTAL (time 28 day) was 3.4 g and the LIVER (time 7 day) was 14.7 g. It also gave an LIVER (time 14 day) of 20.2 g, an LIVER (time 28 day) of 27.3 g and an A/G (time 7 day) of 2.1. The ALP (time 7 day) was 719.8 IU/L, the ALT (time 7 day) was 33.2 IU/L and the AST (time 7 day) was 55.8 IU/L. The BUN (time 7 day) was 15.8 mg/dL, the CRE (time 7 day) was 0.6 mg/dL and the Ca (time 7 day) was 10.4 mg/dL. It also gave a Cl (time 7 day) of 104.8 meq/L, a DBIL (time 7 day) of 0.002 mg/dL and a GLC (time 7 day) of 190.6 mg/dL. It also gave an IP (time 7 day) of 7.9 mg/dL, a K (time 7 day) of 5 meq/L and an LDH (time 7 day) of 93.6 IU/L. For the same compound, the Na (time 7 day) was 137.6 meq/L, the PL (time 7 day) was 166.4 mg/dL and the RALB (time 7 day) was 4 g/dL. It also gave a TBIL (time 7 day) of 0.5 mg/dL, a TC (time 7 day) of 89.4 mg/dL and a TG (time 7 day) of 129.8 mg/dL. For the same compound, the TP (time 7 day) was 5.9 g/dL, the gamma-GTP (time 7 day) was 1.2 IU/L and the A/G (time 14 day) was 1.8. The ALP (time 14 day) was 589.2 IU/L, the ALT (time 14 day) was 35.4 IU/L and the AST (time 14 day) was 61.8 IU/L. For the same compound, the BUN (time 14 day) was 17.6 mg/dL, the CRE (time 14 day) was 0.6 mg/dL and the Ca (time 14 day) was 10.4 mg/dL. For the same compound, the Cl (time 14 day) was 105.4 meq/L, the DBIL (time 14 day) was 0.004 mg/dL and the GLC (time 14 day) was 173.2 mg/dL. The IP (time 14 day) was 7.1 mg/dL, the K (time 14 day) was 4.9 meq/L and the LDH (time 14 day) was 84.6 IU/L. The Na (time 14 day) was 139.6 meq/L, the PL (time 14 day) was 201 mg/dL and the RALB (time 14 day) was 4 g/dL. For the same compound, the TBIL (time 14 day) was 0.4 mg/dL, the TC (time 14 day) was 120.6 mg/dL and the TG (time 14 day) was 119.6 mg/dL. It also gave a TP (time 14 day) of 6.2 g/dL, a gamma-GTP (time 14 day) of 2 IU/L and an A/G (time 28 day) of 1.6. The ALP (time 28 day) was 345.6 IU/L, the ALT (time 28 day) was 35.6 IU/L and the AST (time 28 day) was 55.2 IU/L. For the same compound, the BUN (time 28 day) was 18.6 mg/dL, the CRE (time 28 day) was 0.7 mg/dL and the Ca (time 28 day) was 10.8 mg/dL. For the same compound, the Cl (time 28 day) was 105 meq/L, the DBIL (time 28 day) was 0.004 mg/dL and the GLC (time 28 day) was 160.4 mg/dL. For the same compound, the IP (time 28 day) was 7 mg/dL, the K (time 28 day) was 4.7 meq/L and the LDH (time 28 day) was 75 IU/L. The Na (time 28 day) was 141.2 meq/L, the PL (time 28 day) was 190.6 mg/dL and the RALB (time 28 day) was 4.4 g/dL. The TBIL (time 28 day) was 0.4 mg/dL, the TC (time 28 day) was 118 mg/dL and the TG (time 28 day) was 127.4 mg/dL. The TP (time 28 day) was 7.2 g/dL and the gamma-GTP (time 28 day) was 3.2 IU/L.
